Experimental data taken from ChEMBL document CHEMBL4052734, “Synthesis of novel 2-pyrazoline analogues with potent anti-inflammatory effect mediated by inhibition of phospholipase A2: Crystallographic, in silico docking and QSAR analysis” (Bioorg Med Chem Lett, 2017).
In brackets after ≈: the same amount, converted by molar mass. Activity calls are given as the source filed them. No cut-off for these calls is given here.

Key:
[1] = test system: Staphylococcus aureus; experiment: Antibacterial activity against Staphylococcus aureus MTCC 737 after 24 hrs by serial dilution method; type: functional; details: MTCC 737, 24 h
[2] = test system: Bacillus subtilis; experiment: Antibacterial activity against Bacillus subtilis MTCC 441 after 24 hrs by serial dilution method; type: functional; details: MTCC 441, 24 h
[3] = test system: Aspergillus flavus; experiment: Antifungal activity against Aspergillus flavus after 72 hrs by serial dilution method; type: functional
[4] = test system: Aspergillus niger; experiment: Antifungal activity against Aspergillus niger after 72 hrs by serial dilution method; type: functional
[5] = test system: Escherichia coli; experiment: Antibacterial activity against Escherichia coli MTCC 1687 after 24 hrs by serial dilution method; type: functional; details: MTCC 1687, 24 h
[6] = test system: Candida albicans; experiment: Antifungal activity against Candida albicans MTCC 227 after 72 hrs by serial dilution method; type: functional
[7] = biological target: T1, Basic phospholipase A2 VRV-PL-VIIIa (Daboia russelii, UniProt P59071); experiment: (§1) Inhibition of Vipera russelii venom sPLA2 using DMPC as substrate preincubated for 2 mins followed by substrate addition measured after 30 mins
T1 sequence (P59071 whole entry): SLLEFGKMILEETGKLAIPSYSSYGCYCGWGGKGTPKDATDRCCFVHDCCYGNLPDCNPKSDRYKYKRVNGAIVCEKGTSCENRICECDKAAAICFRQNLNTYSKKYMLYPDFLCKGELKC

[8] = biological target: T2, Basic phospholipase A2 VRV-PL-VIIIa (Daboia russelii) (UniProt P59071); experiment: as §1
T2 sequence (whole entry): T1 sequence (P59071 whole entry)

[9] = biological target: T2, Basic phospholipase A2 VRV-PL-VIIIa (Daboia russelii); experiment: Inhibition of Vipera russelii venom sPLA2 using DMPC as substrate at 11.102 uM preincubated for 2 mins followed by substrate addition measured after 30 mins in presence of 1 to 12 mM CaCl2
[10] = biological target: T2, Basic phospholipase A2 VRV-PL-VIIIa (Daboia russelii); experiment: Inhibition of Vipera russelii venom sPLA2 using DMPC as substrate at 11.930 uM preincubated for 2 mins followed by substrate addition measured after 30 mins in presence of 1 to 12 mM CaCl2
[11] = biological target: T2, Basic phospholipase A2 VRV-PL-VIIIa (Daboia russelii); experiment: Inhibition of Vipera russelii venom sPLA2 using DMPC as substrate at 10.214 uM preincubated for 2 mins followed by substrate addition measured after 30 mins in presence of 1 to 12 mM CaCl2

Compound	MIC90 [1] [µg/mL]	MIC90 [2] [µg/mL]	MIC90 [3] [µg/mL]	MIC90 [4] [µg/mL]	MIC90 [5] [µg/mL]	MIC90 ([6]; MTCC 227, 72 h) [µg/mL]	IC50 [7] [µM]	inhibition [8]	MIC90 [6] [µg/mL]	inhibition [9]	inhibition [10]	inhibition [11]
Clc1cccc(C2CC(c3ccccc3)=NN2c2ccccc2)c1Cl (stereo unspecified)	50 (≈ 136 µM)	125 (≈ 340 µM)	110 (≈ 299 µM)	30 (≈ 81.7 µM)	75 (≈ 204 µM)	25 (≈ 68.1 µM)	12	Dose-dependent effect	–	–	–	–
Cc1ccc(C2=NN(c3ccccc3)C(c3cccc(Cl)c3Cl)C2)cc1 (stereo unspecified)	60 (≈ 157 µM)	120 (≈ 315 µM)	120 (≈ 315 µM)	75 (≈ 197 µM)	60 (≈ 157 µM)	60 (≈ 157 µM)	21.7	Dose-dependent effect	–	–	–	–
Clc1cccc(N2N=C(c3ccc4c(c3)OCO4)CC2c2cccc(Cl)c2Cl)c1 (stereo unspecified)	120 (≈ 269 µM)	140 (≈ 314 µM)	120 (≈ 269 µM)	120 (≈ 269 µM)	130 (≈ 292 µM)	130 (≈ 292 µM)	49.8	Dose-dependent effect	–	–	–	–
NYSTATIN	–	–	25	25	–	–	–	–	20	–	–	–
COc1cccc(C2=NN(c3cccc(Cl)c3)C(c3cccc(Cl)c3Cl)C2)c1 (stereo unspecified)	50 (≈ 116 µM)	125 (≈ 290 µM)	130 (≈ 301 µM)	60 (≈ 139 µM)	30 (≈ 69.5 µM)	50 (≈ 116 µM)	30.1	Dose-dependent effect	–	–	–	–
Clc1cccc(C2CC(c3ccc4c(c3)OCO4)=NN2c2ccccc2)c1Cl (stereo unspecified)	130 (≈ 316 µM)	140 (≈ 340 µM)	130 (≈ 316 µM)	130 (≈ 316 µM)	140 (≈ 340 µM)	120 (≈ 292 µM)	48.2	Dose-dependent effect	–	–	–	–
O=C(O)c1cn(C2CC2)c2cc(N3CCNCC3)c(F)cc2c1=O [CIPROFLOXACIN]	20 (≈ 60.4 µM)	40 (≈ 121 µM)	–	–	20 (≈ 60.4 µM)	–	–	–	–	–	–	–
Fc1ccc(C2=NN(c3ccccc3)C(c3cccc(Cl)c3Cl)C2)cc1 (stereo unspecified)	40 (≈ 104 µM)	125 (≈ 324 µM)	120 (≈ 311 µM)	30 (≈ 77.9 µM)	25 (≈ 64.9 µM)	50 (≈ 130 µM)	11.1	Dose-dependent effect	–	Active	–	–
Clc1cccc(N2N=C(c3ccccc3)CC2c2cccc(Cl)c2Cl)c1 (stereo unspecified)	20 (≈ 49.8 µM)	120 (≈ 299 µM)	125 (≈ 311 µM)	20 (≈ 49.8 µM)	20 (≈ 49.8 µM)	15 (≈ 37.3 µM)	19.3	Dose-dependent effect	–	–	–	–
Fc1ccc(C2=NN(c3cccc(Cl)c3)C(c3cccc(Cl)c3Cl)C2)cc1 (stereo unspecified)	40 (≈ 95.3 µM)	120 (≈ 286 µM)	130 (≈ 310 µM)	30 (≈ 71.5 µM)	25 (≈ 59.6 µM)	50 (≈ 119 µM)	19.2	Dose-dependent effect	–	–	–	–
COc1ccccc1C1=NN(c2cccc(Cl)c2)C(c2cccc(Cl)c2Cl)C1 (stereo unspecified)	40 (≈ 92.6 µM)	140 (≈ 324 µM)	130 (≈ 301 µM)	50 (≈ 116 µM)	40 (≈ 92.6 µM)	40 (≈ 92.6 µM)	35.1	Dose-dependent effect	–	–	–	–
COc1cccc(C2=NN(c3ccccc3)C(c3cccc(Cl)c3Cl)C2)c1 (stereo unspecified)	50 (≈ 126 µM)	130 (≈ 327 µM)	120 (≈ 302 µM)	40 (≈ 101 µM)	50 (≈ 126 µM)	40 (≈ 101 µM)	29.8	Dose-dependent effect	–	–	–	–
COc1ccc(C2=NN(c3ccccc3)C(c3cccc(Cl)c3Cl)C2)cc1 (stereo unspecified)	40 (≈ 101 µM)	140 (≈ 352 µM)	125 (≈ 315 µM)	50 (≈ 126 µM)	40 (≈ 101 µM)	30 (≈ 75.5 µM)	11.9	Dose-dependent effect	–	–	Active	–
Clc1ccc(C2=NN(c3ccccc3)C(c3cccc(Cl)c3Cl)C2)cc1 (stereo unspecified)	15 (≈ 37.3 µM)	125 (≈ 311 µM)	120 (≈ 299 µM)	25 (≈ 62.2 µM)	20 (≈ 49.8 µM)	15 (≈ 37.3 µM)	10.2	Dose-dependent effect	–	–	–	Active
Clc1ccc(C2=NN(c3cccc(Cl)c3)C(c3cccc(Cl)c3Cl)C2)cc1 (stereo unspecified)	10 (≈ 22.9 µM)	100 (≈ 229 µM)	110 (≈ 252 µM)	15 (≈ 34.4 µM)	15 (≈ 34.4 µM)	15 (≈ 34.4 µM)	14.6	Dose-dependent effect	–	–	–	–
COc1ccccc1C1=NN(c2ccccc2)C(c2cccc(Cl)c2Cl)C1 (stereo unspecified)	40 (≈ 101 µM)	125 (≈ 315 µM)	125 (≈ 315 µM)	40 (≈ 101 µM)	50 (≈ 126 µM)	30 (≈ 75.5 µM)	30.3	Dose-dependent effect	–	–	–	–
